Each structure is given as a SMILES string.

For the assay, the system named is MIAPACA2 cells. As to the kind of experiment: Western blot of treated MIAPACA2 cells. The note with it: for phosphorylation of CHEK1 and CHEK2: HCT13 + Cu(II). The class given is cell-based, human. The protocol: FIGS. 2A-2I. FIG. 2A: representative immunoblots of MIAPACA2 PDAC cells treated as indicated for 24h. FIGS. 2B-2C: reactive oxygen species (ROS) measurement using CM-H2DCFDA staining after HCT13 (25 nM)+Cu(II) (20 μM) treatment for 24h; mean fluorescence intensity (MFI); mean±SD, n=2, Student t-test, ***P<0.001. FIG. 2D-2E: mitochondrial ROS detection using MitoSOX staining in MIAPACA2 PDAC cells treated with HCT-13 (25 nM)+Cu(II) (20 μM) for 24h; mean±SD, n=2, Student t-test, ***P<0.001. FIG. 2F: oxygen consumption rate (OCR) of MIAPACA2 PDAC cells treated with HCT-13 (25 nM)+Cu(II) (20 μM). FIG. 2G: OCR of isolated mitochondria measured with or without HCT-13 (25 nM)+Cu(II) (20 μM). FIG. 2H: viability of 143 BTK parental (wild type, WT) and po cells after 48 h of treatment with the indicated HCT-13 concentrations+Cu(II) (20 μM) treatment, assessed with trypan blue staining; mean±SD, n=2, Student t-test, ***P<0.001. FIG. 2I: cell viability by trypan blue staining in MIAPACA2 PDAC cells to interrogate the interaction of HCT-13 (25 nM)+Cu(II) (20 μM) with 2-DG (2 mM) for 48 h; mean±SD, n=2, Student t-test, ***P<0.001.
FIGS. 4A-4G show the chemical genomics screen identifying the replication stress response pathway as an actionable co-dependency of HCT13-treated cells. FIG. 4A: experimental design of a synthetic lethality screen using a library of protein kinase inhibitors against HCT13-treated cells in the presence of Cu(II) (20 μM). FIG. 4B: radar plot of screen results. FIG. 4C: z-score values for kinase inhibitors within the DNA damage response/replication stress response (DDR/RSR) pathway module. FIG. 4D: representative immunoblot of replication stress and cell death biomarkers in MIAPACA2 PDAC cells treated with HCT13 (10 nM)+Cu(II) (20 μM). […] (mean±SD, n=2, one-way ANOVA corrected for multiple comparisons by Bonferroni adjustment, * P<0.05; ** P<0.01; *** P<0.001; **** P<0.0001).
(§1) Western blot: Cells were lysed using RIPA buffer supplemented with protease (ThermoFisher, 78,430) and phosphatase (ThermoFisher, 78,420) inhibitors, scraped, sonicated, and centrifuged (20,000×g at 4° C.). Protein concentrations in the supernatant were determined using the Micro BCA Protein Assay kit (Thermo), and equal amounts of protein were resolved on pre-made Bis-Tris polyacrylamide gels (Life Technologies). Primary antibodies: pAMPKT172 (Cell signaling, #2535, 1:1000), HO-1 (Cell signaling, #5061S, 1:1000), pS345 CHEK1 (Cell signaling, #2348L, 1:1000), pT68 CHEK2 (Cell signaling, #2197 S, 1:1000), pS139 H2A.X (Millipore, 05-636, 1:1000), clvd. Casp3 (Cell signaling, #9662, 1:1000), and anti-actin (Cell Signaling Technology, 9470, 1:10,000). Primary antibodies were stored in 5% BSA (Sigma-Aldrich) and 0.1% NaN3 in TBST solution. Anti-rabbit IgG HRP-linked (Cell Signaling Technology, 7074, 1:2500) and anti-mouse IgG HRP-linked (Cell Signaling Technology, 7076, 1:2500) were used as secondary antibodies. Chemiluminescent substrates (ThermoFisher Scientific, 34,077 and 34,095) and autoradiography film (Denville) were used for detection.
as §1, with “blot.” for “blot:”, “Anti-rabbit IgG HRP-linked (Cell Signaling Technology, 7074, 1:2500) and anti-mouse IgG HRP-linked (Cell Signaling Technology, 7076, 1:2500) were used as secondary antibodies. Chemiluminescent substrates (ThermoFisher Scientific, 34,077 and 34,095) and autoradiography film (Denville) were used for detection.” left out

Take `CN(C)C(=S)N/N=C/c1nccc2cc(F)ccc12` (mixture of isomers) [HCT13, (E)-2-((6-Fluoroisoquinolin-1-yl)methylene)-N,N-dimethylhydrazine-1-carbothioamide and (Z)-2-((6-Fluoroisoquinolin-1-yl)methylene)-N,N-dimethylhydrazine-1-carbothioamide]: the “phosphorylation of CHEK1 and CHEK2” value is reported as “consistently observed phosphorylation”. Also, where the note is “24 h”, the “heme oxygenase-1 (HO-1) levels” value is reported as “increased”. Besides, the “AMPK phosphorylation (T172)” value (Cu(II)-supplemented cells, 24 hours) is “induction”. Also, where the note is “listed as HCT-13”, the “phosphorylation of CHEK1 and CHEK2” value is “phosphorylation of CHEK1 and CHEK2 kinases was observed”. For the same compound, for the setting “HCT-13 + Cu(II)”, the “DNA damage marker pH2AX” value was “induction of DNA damage marker pH2AX” and the “apoptotic marker caspase 3” value was “cleavage of apoptotic marker caspase 3”.

For the origin of these results see patent publication US12528774B2, “Thiosemicarbazone compounds and uses thereof” (The Regents of the University of California, priority 2019, dated 2026).
